{"source": "patent US20230165836A1", "about": "“ALPHA-2 ADRENERGIC RECEPTOR AGONISTS FOR THE TREATMENT OF CANCER” (UNIVERSITÉ CATHOLIQUE DE LOUVAIN, priority 2020, published 2023)", "key": {"prostate cancer": {"tested_on": "prostate cancer", "assay": "Xenograft model of prostate cancer in NSG mice treated with PBMC", "assay_type": "in vivo"}, "[1]": {"tested_on": "SKOV3 human ovarian tumor cells", "details": "SKOV3 in NSG mice", "description": "SKOV3 human ovarian tumor cells were injected subcutaneously in immune deficient NSG mice. When tumors were palpable, tumor-bearing mice received adoptive cell transfer of 3×10^6 of allogeneic human PBMC (i.v.) and were injected daily with clonidine (5 mg/kg, i.p.) or vehicle (PBS, i.p.) until sacrifice."}, "mammary gland tumor": {"tested_on": "mammary gland tumor", "assay": "Tumor model: mammary gland tumor", "assay_type": "in vivo, mice", "details": "mammary gland tumor (FIG. 22A, 23A)", "from_the_text": "(§1) FIGS. 23A-H is a set of curves showing the tumor growth of mice treated with PBS (Control, circles) or guanabenz (GBZ, triangles) in different tumor models: such as mammary gland tumor (FIG. 23A), hepatocellular carcinoma (FIG. 23B), T cell lymphoma (FIG. 23C), lung cancer (FIG. 23D), myeloma (FIG. 23E), mammary adenocarcinoma (FIG. 23F), renal cancer (FIG. 23G) and fibrosarcoma (FIG. 23H)."}, "renal cancer": {"tested_on": "renal cancer", "assay": "Tumor model: renal cancer", "assay_type": "in vivo, mice", "details": "renal cancer (FIG. 22G, 23G)", "from_the_text": "as §1"}, "TiRP melanoma": {"tested_on": "TiRP melanoma", "assay": "TiRP melanoma model, monotherapy", "assay_type": "in vivo", "details": "TiRP+/+ mice; 5 mg/kg, i.p. daily from tumor size around 250 mm^3", "description": "FIGS. 14A-B is a set of curves showing the tumor growth (melanoma) in TiRP+/+ mice that have received daily injections of guanfacine (5 mg/kg, i.p. triangles; FIG. 14A), clonidine (5 mg/kg, i.p., circles; FIG. 14B), or control (PBS, i.p., squares), when the tumor size was around 250 mm^3 until sacrifice.\nTiRP mice have been created by crossing Ink4a/Are^flox/flox mice with mice carrying a transgenic construct controlled by the tyrosinase promoter and driving the expression of H-Ras ^12V and Trapl a which encodes a MAGE-type tumor antigen P1A; the promoter is separated from the coding region by a stop cassette made of a floxed self-deleting CreER (Huijbers et al., 2006, Cancer Res 66, 3278-3286). Those mice were backcrossed to a B10.D2 background and bred to homozygosity. TCRP1A mice heterozygous for the H-2Ld/P1A35-43-specific TCR transgene were kept on the B10.D2;Rag1^−/− background (Shanker et al., 2004, J Immunol 172, 5069-5077). […]\nA fresh solution of 40H-Tamoxifen was prepared by dissolving 40H-Tamoxifen (Imaginechem®) in 100% ethanol and mineral oil (ratio 1:9) followed by 30 min sonication, and injected subcutaneously (2 mg/200 uL per mouse) in the neck area of gender-matched 7 weeks old TiRP mice. Tumor appearance was monitored daily and tumors were measured three times/week. Tumor volume (in mm^3) was calculated by the following formula: Volume=width^2×length/2."}, "MC38 colon carcinomas": {"tested_on": "MC38 colon carcinomas", "assay": "MC38 colon carcinoma in Adra2a KO mice", "assay_type": "in vivo, C57BL/6 Adra2a KO mice", "details": "5 mg/kg, i.p. daily from tumor size around 50 mm^3", "description": "C57BL/6 Wildtype or C57BL/6 Adra2a KO mice bearing MC38 colon carcinomas received daily injections of vehicle control (PBS), clonidine (5 mg/kg, i.p.) or guanabenz (5 mg/kg, i.p.), when the tumor size was around 50 mm^3, until the day of sacrifice."}, "lung cancer": {"tested_on": "lung cancer", "assay": "Tumor model: lung cancer", "assay_type": "in vivo, mice", "details": "lung cancer (FIG. 22D, 23D)", "from_the_text": "as §1"}, "[2]": {"tested_on": "human LS411N ovarian cancer", "assay": "LS411N xenograft with adoptive transfer of allogeneic human PBMC", "assay_type": "in vivo", "details": "human allogenic PBMC transferred at tumor size 100 mm^3", "description": "Adoptive transfer of human PBMC was performed when tumor size reaches 100 mm^3."}}, "data": [{"smiles": "Clc1cccc(Cl)c1N=C1NCCN1", "note": "[clonidine]", "values": [{"measurement": "tumor growth", "setting": "prostate cancer", "result": "strong tumor inhibition"}, {"measurement": "anti-tumor efficacy of human PBMC", "setting": "[1]; 3×10^6 PBMC i.v., 5 mg/kg i.p. daily", "result": "strongly increased the anti-tumor efficacy of human PBMC"}, {"measurement": "expression of CD44 on tumor-infiltrated CD8+T cells", "setting": "[1]; PBMC, 5 mg/kg i.p.", "result": "increased expression of CD44"}, {"measurement": "infiltration of CD4+ human T cells into tumors", "setting": "[1]; PBMC, 5 mg/kg i.p.", "result": "increased"}, {"measurement": "infiltration of CD8+ human T cells into tumors", "setting": "[1]; PBMC, 5 mg/kg i.p.", "result": "increased"}, {"measurement": "tumor growth, compared to ACT alone", "setting": "[1]; with ACT, 5 mg/kg i.p. daily", "result": "significantly decreased"}, {"measurement": "tumor weight on the day of sacrifice, compared to ACT alone", "setting": "[1]; with ACT, 5 mg/kg i.p. daily", "result": "significantly decreased"}, {"measurement": "tumor growth", "setting": "mammary gland tumor", "result": "strong tumor inhibition"}, {"measurement": "tumor growth", "setting": "renal cancer", "result": "strong tumor inhibition"}, {"measurement": "tumor volume, monotherapy", "setting": "TiRP melanoma", "result": "efficient in decreasing the tumor volume"}, {"measurement": "tumor inhibition in Adra2a KO mice", "setting": "MC38 colon carcinomas", "result": "almost completely attenuated"}, {"measurement": "tumor growth", "setting": "lung cancer", "result": "strong tumor inhibition"}, {"measurement": "tumor growth", "setting": "[2]", "result": "significant tumor inhibition"}]}]}
